# Measurements taken from patent US11274332B2, “Methods of administering 3,4-diaminopyridine” (SERB SA, priority 2011, dated 2022).
# Read-outs that look alike come from different tables or passages of the source.
# Test: Example 18 Part 1: single ascending dose PK (5-30 mg) in slow and fast acetylators
# Type: in vivo, human
# Conditions: for half-life / Cmax: both sexes, human, plasma; for half-life: oral, 5-30 mg, read-out: Mean terminal elimination half-lives; for Cmax: po, single oral doses 5 to 30 mg, read-out: mean Cmax, range over doses
# Procedure: The following method was used to analyze concentrations of 3,4-diaminopyridine and N-(4-aminopyridin-3-yl)acetamide in plasma and urine samples for the experiments in Example 18. In the LC/MS/MS method, the human plasma and urine samples were extracted using acetonitrile containing 0.1% formic acid. Samples were analyzed by using HPLC with positive ion electrospray MS/MS detection. The column was an Atlantis HILIC Silica column (3 μm, 3×50 mm) at a temperature of 40° C. Mobile phase A was water containing ammonium formate (20 mM) and 0.1% formic acid. Mobile phase B was acetonitrile/isopropanol (90/10; v/v) containing 0.1% formic acid. The flow rate was 0.90 mL/minute. The gradient conditions for human plasma and urine samples were as follows:
# The LC/MS/MS method was validated to quantify 3,4-DAP in human plasma in the linear calibration range of 0.500 to 500 ng/mL and from 1.00 to 1000 ng/mL for the 3-N-acetyl metabolite.
# The primary objective of the study was to assess the safety and tolerability of 3,4-DAP phosphate after single and multiple doses. The secondary objectives of the study were • Part 1 only: To determine the dose-related PK profile of amifampridine and of 3-N-acetyl amifampridine after single, escalating doses of 3,4-DAP phosphate • Part 2 only: To assess the steady-state plasma PK and accumulation of amifampridine and of 3-N-acetyl amifampridine over multiple days of dosing with 3,4-DAP phosphate An exploratory objective was to examine the overall activity of the N-acetyl transferase enzymes on the metabolism of amifampridine by assessing the PK of amifampridine and 3-N-acetyl amifampridine with phenotypic acetylation activity and genotyping determination of NAT2 gene polymorphisms. Study Design and Plan
# This open-label study in healthy subjects (male and female) was conducted in 2 parts. A total of 26 healthy male and female subjects, 12 in Part 1 (at least 5 of each sex), 4 in Part 2 Group 1, and 10 in Part 2 Group 2 (at least 4 of each sex) were enrolled into the study. The same subjects were not enrolled to participate in both parts. Subjects in Part 2 were dosed only after all subjects of Part 1 completed dosing and at least 24-hours of follow-up safety evaluation after the last dose were completed.
# All subjects were characterized for their metabolic acetylation phenotype and NAT2 genotype in order to divide subjects into two groups of acetylators. Volunteers were genetically typed for highly variant alleles of the N-acetyl transferase 2 enzyme (NAT2) domain on chromosome 8 (according to Example 16) and were phenotyped for acetylation rates with a caffeine challenge test (according to Example 15a). Approximately equal numbers of slow and fast acetylators (as defined by a caffeine challenge test in Example 15a) were enrolled in each group. In Part 2, very slow acetylators with NAT2 activity (ratio 1, Example 15a) below 0.06 were excluded from participation in the study. In each part of the study, subjects were assessed for PK, safety, and tolerability and all doses were administered within 30 min of ingestion of a meal or a snack.
# Part 1 was a dose-proportionality study in 12 healthy subjects each receiving 4 ascending single oral doses of 3,4-DAP phosphate in a sequential manner (5 mg, 10 mg, 20 mg, and 30 mg). For all 12 subjects, the first 3 doses of oral 3,4-DAP phosphate (5-20 mg) were administered on 3 consecutive days (Days 1-3). Two fast and two slow acetylators (as defined by a caffeine challenge test in Example 15a) were selected as the first 4 enrolled subjects (sentinel subjects). For the 2 fast acetylators the 30 mg dose was administered on Day 4. […] Safety and tolerability data collected for all 4 subjects were reviewed and the safety and tolerability results of the 30 mg dose for these 4 sentinel subjects were acceptable. The 30 mg dose was given to the remaining 8 non-sentinel subjects on Day 7. […]
structure (smiles),measurement,setting,value
"Nc1ccncc1N [3,4-DAP, 3,4-diaminopyridine]",Mean AUC0-t Slow/fast Ratio,5 mg single dose,10.4
same,Mean CL/F Slow/fast Ratio,5 mg single dose,0.114
same,Mean Cmax Slow/fast Ratio,5 mg single dose,4.50
same,Mean t1/2 Slow/fast Ratio,5 mg single dose,3.68
same,Mean AUC0-t Slow/fast Ratio,10 mg single dose,6.94
same,Mean CL/F Slow/fast Ratio,10 mg single dose,0.163
same,Mean Cmax Slow/fast Ratio,10 mg single dose,3.47
same,Mean t1/2 Slow/fast Ratio,10 mg single dose,2.15
same,Mean AUC0-t Slow/fast Ratio,20 mg single dose,5.75
same,Mean CL/F Slow/fast Ratio,20 mg single dose,0.186
same,Mean Cmax Slow/fast Ratio,20 mg single dose,3.50
same,Mean t1/2 Slow/fast Ratio,20 mg single dose,2.38
same,Mean AUC0-t Slow/fast Ratio,30 mg single dose,5.29
same,Mean CL/F Slow/fast Ratio,30 mg single dose,0.196
same,Mean Cmax Slow/fast Ratio,30 mg single dose,3.51
same,Mean t1/2 Slow/fast Ratio,30 mg single dose,1.88
same,half-life,fast acetylators,36.2 to 99 min
same,half-life,slow acetylators,133 to 187 min
same,Cmax,fast acetylator phenotype,3.98 to 25.5 ng/mL
same,Cmax,slow acetylator phenotype,17.9 to 89.6 ng/mL
same,AUC increase over 6-fold dose range (5 to 30 mg),fast acetylators,15.1 fold
same,Cmax increase over 6-fold dose range (5 to 30 mg),fast acetylators,6.41 fold
same,AUC increase over 6-fold dose range (5 to 30 mg),slow acetylators,7.64 fold
same,Cmax increase over 6-fold dose range (5 to 30 mg),slow acetylators,5.01 fold
